Assay [1] has as its system HT-29. As to the kind of experiment: Effective dose required to kill 90% of HT-29 cells with BCNU (40 uM). The assay is classed as functional, Homo sapiens.
The test system of assay [2] is HT-29. Kind of assay: Effective dose required to kill 90% of HT-29 cells with BCNU (40 uM); RPMI medium. In kind it is functional, Homo sapiens.
Assay [3] concerns the target T1, Methylated-DNA--protein-cysteine methyltransferase (Homo sapiens) (UniProt P16455).
T1 sequence (whole entry): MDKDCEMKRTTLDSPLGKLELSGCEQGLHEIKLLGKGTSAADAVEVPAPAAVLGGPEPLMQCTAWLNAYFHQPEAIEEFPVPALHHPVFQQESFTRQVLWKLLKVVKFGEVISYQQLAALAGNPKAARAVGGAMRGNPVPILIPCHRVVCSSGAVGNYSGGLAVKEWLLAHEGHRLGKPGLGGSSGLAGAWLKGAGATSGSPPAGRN
Description: In vitro inactivation of human O6-alkylguanine-DNA alkyltransferase in the presence of calf thymus DNA (ctDNA)

The target in assay [4] is T1, Methylated-DNA--protein-cysteine methyltransferase (Homo sapiens). This is another data set of the same source.
Description: In vitro inactivation of human O6-alkylguanine-DNA alkyltransferase in the absence of calf thymus DNA (ctDNA)
Assay [5] relates to HT-29. As to the kind of experiment: Effective dose required to kill 90% of HT-29 cells with BCNU (40 Dulbecco''s medium. The assay is classed as functional, Homo sapiens.
The subject of assay [6] is HT-29. Kind of assay: Effective dose required to kill 90% of HT-29 cells with BCNU (40 uM); folate-free RPMI medium. The assay is classed as functional, Homo sapiens.
The test system of assay [7] is HT-29. Kind of assay: Effective dose required to kill 90% HT-29 cells with BCNU (40 uM). In kind it is functional, Homo sapiens.
For assay [8], the system named is HT-29. Kind of assay: Effective dose required to kill 90% of HT-29 cells with BCNU (40 uM. In kind it is functional, cell-based. To be noted: Homo sapiens.

Molecules are shown by their SMILES. Calls of active or inactive are those of the source. The calls are words filed in the database; no cut-off is given here.

Molecule `Nc1nc(OCc2ccccc2)c2nc(C=O)cnc2n1` came in with an ED90 in the assay on HT-29 [1] of 700 nM.
Same read-out and setting: the figure for `Nc1nc(OCc2ccccc2)c2nccnc2n1` is 200 nM.
On to `Nc1nc(OCc2ccccc2)c2nc[nH]c2n1` [6-O-BENZYLGUANINE], for which the ED90 in the assay with HT-29 [2] was 700 nM; with HT-29 [5], 400 nM. Besides, the ED50 in assay [3] amounted to 120 nM; in assay [4], 320 nM.
`Cc1nc2nc(N)nc(OCc3ccccc3)c2nc1C` had an ED90 in the assay with HT-29 [1] of 600 nM.
As for `Nc1nc(OCc2ccccc2)c2nc(CNc3ccc(C(=O)N[C@@H](CCC(=O)O)C(=O)O)cc3)cnc2n1`, the results for the ED90 in the assay with HT-29 [6] and in the assay on HT-29 [2] were 15000 nM and 24000 nM, respectively.
The molecule `Nc1nc(OCc2ccccc2)c2nc(CO)cnc2n1` returned an ED90 with HT-29 [7] of 700 nM.
For the molecule `Nc1nc(OCc2ccccc2)c2nc(C(=O)O)cnc2n1`, the ED90 entry with HT-29 [8] is “inactive”.

For the origin of these results see ChEMBL document CHEMBL1148373, “2-amino-O4-benzylpteridine derivatives: potent inactivators of O6-alkylguanine-DNA alkyltransferase” (2004).
